According to ChEMBL document CHEMBL1130568, “Antibody-mediated regio- and enantioselective resolution of a glycerol derivative” (Bioorg Med Chem Lett, 1997):

Experiment: Kinetic parameter for hydrolysis of 1 by Antibody 2D10 after addition of compound 12
Type: ADME

Ki: 2800 nM
SMILES: CC(=O)O[C@@H](COCc1ccc([N+](=O)[O-])cc1)COP(=O)(O)CCCCCC(=O)O
